Source: patent publication US8916557B2, “Substituted 4-Aryl-N-phenyl-1,3,5-triazin-2-amines” (Bayer Intellectual Property GmbH, priority 2011, dated 2014)

Legend:
CDK9/CycT1 = biological target: T1, CDK9/CycT1 (Homo sapiens, UniProt P50750); assay: CDK9/CycT1 kinase assay (TR-FRET); assay type: biochemical; conditions: Method 1, 10 μM ATP
T1 construct: Recombinant full-length His-tagged human CDK9 and CycT1; His; purchased Invitrogen PV4131; host or cells: insect cells
In short: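 Full-length His-tagged human CDK9/CycT1 (insect-cell expressed), 15 min compound pre-incubation, then 25 min at 22 °C with 10 µM ATP (final) and 1 µM biotinylated peptide (final) in Tris pH 8.0/MgCl2 buffer. Phospho-substrate detected by TR-FRET (anti-RB pSer807/pSer811, Eu anti-mouse IgG, streptavidin-XL665); 665/622 nm emission ratio as read-out.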

CDK2/CycE = biological target: T2, CDK2/CycE (Homo sapiens, UniProt P24941); assay: CDK2/CycE kinase assay (TR-FRET); assay type: biochemical; conditions: Method 2, 10 μM ATP
T2 construct: GST; purchased ProQinase GmbH (Freiburg, Germany); host or cells: insect cells (Sf9)
In short: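 GST-CDK2/GST-CycE (Sf9-expressed, ~130 ng/ml) pre-incubated with compound 15 min, then reacted 25 min at 22 °C with 10 μM ATP and 0.75 μM biotinylated peptide in Tris pH 8.0. Phospho-substrate detected by TR-FRET (anti-pRb pSer807/811, Eu/XL665), 665/620 nm ratio.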

[1] = test system: HeLa human cervical tumour cells; assay: Proliferation assay (crystal violet), HeLa; assay type: cell-based; conditions: read-out: Inhibition of HeLa cell proliferation
Caco-2 permeation assay = assay type: in vitro ADME; conditions: human
Method: Cells were maintained at 37° C. in a humified 5% CO2 atmosphere. Medium was changed every 2-3 day. Before running the permeation assay, the culture medium was replaced by a FCS-free hepes-carbonate transport buffer (pH 7.2). For assessment of monolayer integrity the transepithelial electrical resistance (TEER) was measured. Test compounds were predissolved in DMSO and added either to the apical or basolateral compartment in final concentration of 2 μM in transport buffer. Before and after 2 h incubation at 37° C. samples were taken from both compartments. Analysis of compound content was done after precipitation with methanol by LC/MS/MS analysis. Apparent permeability (Papp) was calculated in the apical to basolateral (Papp A→B) and basolateral to apical (Papp B→A) directions. The apparent permeability was calculated using following equation: Papp=(Vr/Po)(1/S)(P2/t)
Where Vr is the volume of medium in the receiver chamber, Po is the measured peak area or height of the test drug in the donor chamber at t=o, S the surface area of the monolayer, P2 is the measured peak area of the test drug in the acceptor chamber after 2 h of incubation, and t is the incubation time. The efflux ratio basolateral (B) to apical (A) was calculated by dividing the Papp B−A by the Papp A-B. In addition the compound recovery was calculated. The following reference compounds were used for the classification of the permeability class: Antipyrine, Pyrazosin, Verapamil, Fluvastatin, Cimetidine, Ranitidine, Atenolol, Sulfasalazine.

[2] = test system: HeLa-MaTu-ADR, multidrug-resistant human cervical carcinoma cells; assay: Proliferation assay (crystal violet), HeLa-MaTu-ADR; assay type: cell-based; conditions: read-out: Inhibition of HeLa/MaTu/ADR cell proliferation
Method: (§1) Cultivated tumour cells (NCI-H460, human non-small cell lung carcinoma cells, ATCC HTB-177; DU 145, hormone-independent human prostate carcinoma cells, ATCC HTB-81; HeLa-MaTu, human cervical carcinoma cells, EPO-GmbH, Berlin; HeLa-MaTu-ADR, multidrug-resistant human cervical carcinoma cells, EPO-GmbH, Berlin; HeLa human cervical tumour cells, ATCC CCL-2; Caco-2 human colorectal carcinoma, ATCC HTB-37; B16F10 mouse melanoma cells, ATCC CRL-6475) were plated at a density of 5000 cells/well (DU145, HeLa-MaTu-ADR), 3000 cells/well (NCI-H460, HeLa-MaTu, HeLa), 1500 cells/well (Caco-2), or 1000 cells/well (B16F10) in a 96-well multititer plate in 200 μL of their respective growth medium supplemented 10% fetal calf serum. After 24 hours, the cells of one plate (zero-point plate) were stained with crystal violet (see below), while the medium of the other plates was replaced by fresh culture medium (200 μl), to which the test substances were added in various concentrations (0 μM, as well as in the range of 0.001-10 μM; the final concentration of the solvent dimethyl sulfoxide was 0.5%). The cells were incubated for 4 days in the presence of test substances. Cell proliferation was determined by staining the cells with crystal violet: the cells were fixed by adding 20 μl/measuring point of an 11% glutaric aldehyde solution for 15 minutes at room temperature. After three washing cycles of the fixed cells with water, the plates were dried at room temperature. The cells were stained by adding 100 μl/measuring point of a 0.1% crystal violet solution (pH 3.0). After three washing cycles of the stained cells with water, the plates were dried at room temperature. The dye was dissolved by adding 100 μl/measuring point of a 10% acetic acid solution. The extinction was determined by photometry at a wavelength of 595 nm. The change of cell number, in percent, was calculated by normalization of the measured values to the extinction values of the zero-point plate (=0%) and the extinction of the untreated (0 μm) cells (=100%). The IC50 values were determined by means of a 4 parameter fit.

[3] = test system: NCI-H460, human non-small cell lung carcinoma cells; assay: Proliferation assay (crystal violet), NCI-H460; assay type: cell-based; conditions: read-out: Inhibition of H460 cell proliferation (activity range)
Method: as §1

[4] = test system: DU 145, hormone-independent human prostate carcinoma cells; assay: Proliferation assay (crystal violet), DU 145; assay type: cell-based; conditions: DU145 cells, read-out: Inhibition of DU145 cell proliferation
Method: Cultivated tumour cells (NCI-H460, human non-small cell lung carcinoma cells, ATCC HTB-177; DU 145, hormone-independent human prostate carcinoma cells, ATCC HTB-81; HeLa-MaTu, human cervical carcinoma cells, EPO-GmbH, Berlin; HeLa-MaTu-ADR, multidrug-resistant human cervical carcinoma cells, EPO-GmbH, Berlin; HeLa human cervical tumour cells, ATCC CCL-2; Caco-2 human colorectal carcinoma, ATCC HTB-37; B16F10 mouse melanoma cells, ATCC CRL-6475) were plated at a density of 5000 cells/well (DU145, HeLa-MaTu-ADR), 3000 cells/well (NCI-H460, HeLa-MaTu, HeLa), 1500 cells/well (Caco-2), or 1000 cells/well (B16F10) in a 96-well multititer plate in 200 μL of their respective growth medium supplemented 10% fetal calf serum. […] Cell proliferation was determined by staining the cells with crystal violet: the cells were fixed by adding 20 μl/measuring point of an 11% glutaric aldehyde solution for 15 minutes at room temperature. […] The extinction was determined by photometry at a wavelength of 595 nm. The change of cell number, in percent, was calculated by normalization of the measured values to the extinction values of the zero-point plate (=0%) and the extinction of the untreated (0 μm) cells (=100%). The IC50 values were determined by means of a 4 parameter fit.

[5] = test system: Caco-2 human colorectal carcinoma; assay: Proliferation assay (crystal violet), Caco-2; assay type: cell-based; conditions: CACO-2 cells, read-out: Inhibition of CACO-2 cell proliferation
[6] = test system: B16F10 mouse melanoma cells; assay: Proliferation assay (crystal violet), B16F10; assay type: cell-based; conditions: B16-F10, read-out: Inhibition of B16F10 cell proliferation
Method: as §1

T1 sequence (P50750 whole entry): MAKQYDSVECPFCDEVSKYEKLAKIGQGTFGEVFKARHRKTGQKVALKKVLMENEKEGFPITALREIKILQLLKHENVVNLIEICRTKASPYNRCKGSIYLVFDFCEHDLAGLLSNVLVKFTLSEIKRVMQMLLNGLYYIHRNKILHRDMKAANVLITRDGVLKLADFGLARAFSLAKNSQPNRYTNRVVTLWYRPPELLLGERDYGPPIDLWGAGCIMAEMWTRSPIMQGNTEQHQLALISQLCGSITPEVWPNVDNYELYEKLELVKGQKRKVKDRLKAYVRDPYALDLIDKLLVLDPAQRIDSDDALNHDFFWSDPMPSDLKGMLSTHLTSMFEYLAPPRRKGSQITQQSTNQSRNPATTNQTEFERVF
T1 sequence (O60563 whole entry partner): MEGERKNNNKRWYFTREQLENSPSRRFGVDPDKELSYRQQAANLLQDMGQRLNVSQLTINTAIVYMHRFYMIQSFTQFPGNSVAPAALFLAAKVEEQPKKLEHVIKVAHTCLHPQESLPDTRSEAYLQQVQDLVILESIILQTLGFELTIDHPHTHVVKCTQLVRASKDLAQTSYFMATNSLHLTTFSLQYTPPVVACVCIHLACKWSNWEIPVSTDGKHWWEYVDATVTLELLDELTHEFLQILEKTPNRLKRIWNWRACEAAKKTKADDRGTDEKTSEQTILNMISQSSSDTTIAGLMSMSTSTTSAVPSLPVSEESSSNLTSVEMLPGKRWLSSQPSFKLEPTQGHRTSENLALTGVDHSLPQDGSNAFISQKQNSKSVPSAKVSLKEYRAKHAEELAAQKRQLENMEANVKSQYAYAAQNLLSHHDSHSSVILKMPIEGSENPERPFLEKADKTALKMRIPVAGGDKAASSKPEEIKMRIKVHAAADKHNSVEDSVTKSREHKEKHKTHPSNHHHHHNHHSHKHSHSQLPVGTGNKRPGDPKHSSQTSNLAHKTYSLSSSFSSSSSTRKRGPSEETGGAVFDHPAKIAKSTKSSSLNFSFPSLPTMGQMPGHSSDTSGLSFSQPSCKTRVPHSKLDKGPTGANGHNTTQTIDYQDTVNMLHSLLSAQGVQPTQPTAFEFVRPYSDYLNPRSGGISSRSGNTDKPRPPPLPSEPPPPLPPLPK

| Compound | IC50 (CDK9/CycT1) | IC50 (CDK2/CycE) | IC50 [1] | also measured |
| --- | --- | --- | --- | --- |
| CC(C)COc1cc(F)ccc1-c1ncnc(Nc2cccc(CS(C)(=O)=O)c2)n1 [Example 58, 4-[4-Fluoro-2-(2-methylpropoxy)phenyl]-N-{3-[(methylsulfonyl)methyl]phenyl}-1,3,5-triazin-2-amine] | 46 nM | 5100 nM | 1700 nM | – |
| CS(=O)(=O)Cc1cccc(Nc2ncnc(-c3ccc(F)cc3OCC(F)F)n2)c1 [Example 60, 4-[2-(2,2-Difluoroethoxy)-4-fluorophenyl]-N-{3-[(methylsulfonyl)methyl]phenyl}-1,3,5-triazin-2-amine] | 22 nM | 1200 nM | 1100 nM | – |
| C[C@@H](Oc1cc(F)ccc1-c1ncnc(Nc2cccc(CS(C)(=O)=O)c2)n1)c1ccc(F)cc1 [Example 67, 4-{4-Fluoro-2-[(1R)-1-(4-fluorophenyl)ethoxy]phenyl}-N-{3-[(methylsulfonyl)-methyl]phenyl}-1,3,5-triazin-2-amine] | 8 nM | 1300 nM | 1600 nM | – |
| CS(=O)(=O)Cc1cccc(Nc2ncnc(-c3ccc(F)cc3OCc3ccc(F)c(F)c3F)n2)c1 [Example 72, 4-{4-Fluoro-2-[(2,3,4-trifluorobenzyl)oxy]-phenyl}-N-{3-[(methylsulfonyl)methyl]-phenyl}-1,3,5-triazin-2-amine] | 7 nM | ≥ 20000 nM | 1160 nM | – |
| C[C@@H](Oc1cc(F)ccc1-c1ncnc(Nc2cccc(CS(C)(=O)=O)c2)n1)c1ccccc1 [Example 79, 4-{4-Fluoro-2-[(1R)-1-phenylethoxy]phenyl}-N-{3-[(methylsulfonyl)methyl]phenyl}-1,3,5-triazin-2-amine] | 3 nM | 440 nM | 920 nM | – |
| CS(=O)(=O)Cc1cccc(Nc2ncnc(-c3ccc(F)cc3OCc3cccc(F)c3F)n2)c1 [Example 80, 4-{2-[(2,3-Difluorobenzyl)-oxy]-4-fluorophenyl}-N-{3-[(methylsulfonyl)-methyl]phenyl}-1,3,5-triazin-2-amine] | 21 nM | 2000 nM | 890 nM | – |
| CS(=O)(=O)Cc1cccc(Nc2ncnc(-c3ccc(F)cc3OCc3cc(F)cc(F)c3F)n2)c1 [Example 84, 4-{4-Fluoro-2-[(2,3,5-trifluorobenzyl)oxy]phenyl}-N-{3-[(methylsulfonyl)methyl]-phenyl}-1,3,5-triazin-2-amine] | 3 nM | – | 340 nM | IC50 [2]: 280 nM; IC50 [3]: 310 nM; IC50 [4]: 350 nM; IC50 [5]: 320 nM; IC50 [6]: 490 nM |

Now from value to compound, other results behind:

| IC50 (CDK9/CycT1) | IC50 (CDK2/CycE) | IC50 [1] | Compound | also measured |
| --- | --- | --- | --- | --- |
| 3 nM | 290 nM | 530 nM | CS(=O)(=O)Cc1cccc(Nc2ncnc(-c3ccccc3OCc3cccc(F)c3)n2)c1 [Example 26, 4-{2-[(3-Fluorobenzyl)oxy]phenyl}-N-{3-[(methylsulfonyl)methyl]phenyl}-1,3,5-triazin-2-amine] | efflux ratio at 2 h, 2 μM (Caco-2 permeation assay; Caco-2, pH 7.2): 0.43; Papp A→B at 2 h, 2 μM (Caco-2 permeation assay; Caco-2 monolayer, 2 μM test compound, 2 h, pH 7.2, read-out: Papp A-B (Mari)): 16.9 ×10⁻⁶ cm/s; Papp B→A at 2 h, 2 μM (Caco-2 permeation assay; Caco-2 monolayer, 2 μM test compound, 2 h, pH 7.2, read-out: Papp B-A (Mari)): 7.2 ×10⁻⁶ cm/s |
| 4 nM | 1300 nM | 1300 nM | CS(=O)(=O)Cc1cccc(Nc2ncnc(-c3ccc(F)cc3OCc3cccc(C(F)(F)F)c3)n2)c1 [Example 69, 4-(4-Fluoro-2-{[3-(trifluoromethyl)benzyl]oxy}phenyl)-N-{3-[(methylsulfonyl)-methyl]phenyl}-1,3,5-triazin-2-amine] | – |
| 14 nM | 1100 nM | 1300 nM | COc1cccc(COc2cc(F)ccc2-c2ncnc(Nc3cccc(CS(C)(=O)=O)c3)n2)c1 [Example 70, 4-{4-Fluoro-2-[(3-methoxybenzyl)oxy]phenyl}-N-{3-[(methylsulfonyl)-methyl]phenyl}-1,3,5-triazin-2-amine] | – |
| 12 nM | 2200 nM | 1170 nM | CS(=O)(=O)Cc1cccc(Nc2ncnc(-c3ccc(F)cc3OCc3ccccc3F)n2)c1 [Example 71, 4-{4-Fluoro-2-[(2-fluorobenzyl)oxy]phenyl}-N-{3-[(methylsulfonyl)-methyl]phenyl}-1,3,5-triazin-2-amine] | – |
| 12 nM | ≥ 20000 nM | 1100 nM | CS(=O)(=O)Cc1cccc(Nc2ncnc(-c3ccc(F)cc3OCc3ccc(C(F)(F)F)cc3)n2)c1 [Example 73, 4-(4-Fluoro-2-{[4-(trifluoromethyl)benzyl]-oxy}phenyl)-N-{3-[(methylsulfonyl)-methyl]phenyl}-1,3,5-triazin-2-amine] | – |
| 7 nM | 570 nM | 1100 nM | CS(=O)(=O)Cc1cccc(Nc2ncnc(-c3ccc(F)cc3OCc3cccnc3)n2)c1 [Example 74, 4-[4-Fluoro-2-(pyridin-3-ylmethoxy)phenyl]-N-{3-[(methylsulfonyl)methyl]phenyl}-1,3,5-triazin-2-amine] | – |
| 6 nM | 710 nM | 1000 nM | CS(=O)(=O)Cc1cccc(Nc2ncnc(-c3ccc(F)cc3OCc3ccc(Cl)cc3)n2)c1 [Example 76, 4-{2-[(4-Chlorobenzyl)oxy]-4-fluorophenyl}-N-{3-[(methylsulfonyl)methyl]phenyl}-1,3,5-triazin-2-amine] | – |
| 13 nM | 1600 nM | 1000 nM | Cc1ccc(COc2cc(F)ccc2-c2ncnc(Nc3cccc(CS(C)(=O)=O)c3)n2)cc1 [Example 77, 4-{4-Fluoro-2-[(4-methylbenzyl)oxy]phenyl}-N-{3-[(methylsulfonyl)-methyl]phenyl}-1,3,5-triazin-2-amine] | – |
| 6 nM | – | 250 nM | CS(=O)(=O)Cc1cccc(Nc2ncnc(-c3ccc(F)cc3OCc3ccc(F)c(F)c3)n2)c1 [Example 86, 4-{2-[(3,4-Difluoro-benzyl)oxy]-4-fluorophenyl}-N-{3-[(methylsulfonyl)-methyl]phenyl}-1,3,5-triazin-2-amine] | IC50 [2]: 220 nM; IC50 [3]: 270 nM; IC50 [4]: 230 nM; IC50 [5]: 200 nM; IC50 [6]: 250 nM |
